Assay results taken from patent publication US20070208040A1, “A2A ADENOSINE RECEPTOR ANTAGONISTS” (priority 2006, published 2007).

Biological target: A2A adenosine receptor (UniProt P29274)
Test: A2A radioligand binding assay (displacement of 3H-MSX-2)
Design: species or system human
Details: displacement of 2 nM 3H-MSX-2 from 15 ug A2A membrane, 23° C., 2 hours
Text: A tritiated adenosine A2A antagonist, 3-(3-hydroxypropyl)-7-methyl-8-(m-methoxystyryl)-1-propargylxanthine, (3H-MSX-2, specific activity: 80 Ci/mmol), was purchased from American Radiolabeled Chemicals, Inc (St. Louis, Mo.). A tritiated adenosine A1 antagonist, 1,3-Dipropyl-8-cyclopentylxanthine ([^3H]DPCPX, specific activity: 120 Ci/mmol) was purchased from Perkin Elmer (Boston, Mass.). A tritiated adenosine A2a antagonist, 4-(2-[7-amino-2-(2-furyl)[1,2,4]triazolo[2,3-a][1,3,5]triazin-5-ylamino]ethyl)phenol ([^3H]ZM241385 specific activity: 27.4 Ci/mmol) was purchased from American Radiolabeled Chemicals, Inc (St. Louis, Mo.). Adenosine Deaminase (ADA) was purchased from Roche Molecular Biochemicals (Nutley, N.J.). GTP was purchased from Sigma. Concentrated stock solution (10 mM) of compounds was dissolved in dimethylsulfoxide (DMSO), stored at −20° C., and diluted in Tris-EDTA buffer (50 mM Tris and 1 mM EDTA, 10 mM MgCl2, pH 7.4) for use in experiments. The final content of dimethylsulfoxide in Tris-EDTA buffer during experiments was not more than 1%. Male Sprague Dawley rats, weighted 250-400 g, 8-10 weeks old, were purchased from Charles River Labs (Wilmington, Mass.).
HEK293 (Human Embryonic Kidney 293) cells stably expressing human A2A adenosine receptor or human A2B adenosine receptor were maintained in DMEM supplemented with 10% fetal bovine serum, 2 mM L-glutamine, 100 IU/ml penicillin, 50 μg/ml streptomycin and 2 μg/ml puromycin. CHO (Chinese Hamster Ovary) cells stably expressing human A1 adenosine receptor or human A3 adenosine receptor were maintained in F12K medium supplemented with 10% fetal bovine serum, 2 mM L-glutamine, 100 IU penicillin, 50 μg streptomycin and 8 μg/ml puromycin. PC12 (rat pheochromocytoma) cells were cultured in F12K medium supplemented with 10% horse serum and 2.5% fetal bovine serum, 2 mM L-glutamine, 100 IU/ml penicillin, and 50 μg/ml streptomycin. All cells were maintained at 37° C. in a humidified 5% CO2/95% air incubator and recultivated 2 times per week.
Cultured cells in 150 mm^2 dishes were washed once with PBS, detached by scrapping, collected with buffer A (10 mM HEPES, 10 mM EDTA, pH 7.4) containing protease inhibitor cocktail. Cells were then homogenized by a handheld homogenizer at a speed of 4.5 for 1 min. The homogenate was centrifuged by a Beckman ultracentrifuge at a speed of 29,000 × g for 15 min. The pellets were resuspended in buffer HE (10 mM HEPES, 1 mM EDTA, pH 7.4, with protease inhibitor cocktail), centrifuged again at 29,000 × g for 15 min. The crude membrane was resuspended using buffer HE, and protein concentration was measured by the method of Lowery with BSA as standard. Similar procedures were used for membrane preparation for fresh rat tissues. All experimental procedures were done at 4° C. Membranes were aliquot and kept at −80° C.
The binding assays utilized 15 ug of A2A membrane (human recombinant A2A membrane, rat striatal membrane, or PC 12 cell membrane) that had been treated with adenosine deaminase and 50 mM Tris-EDTA buffer (pH=7.4) followed by mixing 2 μL of serially diluted DMSO stock solution of the compounds of this invention at concentrations ranging from 10 μM to 0.1 nM or the control received 2 μL of DMSO alone, then the tritiated antagonist 3-(3-hydroxypropyl)-7-methyl-8-(m-methoxystyryl)-1-propargylxanthine (^3H-MSX-2) in Tris-EDTA buffer (50 mM Tris, 1 mM EDTA, 10 mM MgCl2, pH of 7.4) was added to achieve a final concentration of 2 nM. After incubation at 23° C. for 2 hours, the solutions were filtered using a membrane harvester with multiple washing of the membranes (3×). The filter plates were counted in scintillation cocktail affording the amount of displacement ^3H-MSX-2 by the competitive binding compositions of this invention. Radioligand binding data was analyzed using GraphPad Prism version 4.0 (San Diego, Calif.). […]

| Ki | Structure (SMILES) |
| --- | --- |
| 110 nM | Cc1c(-c2ccco2)sc2[nH]c(=O)n(C)c(=O)c12 [XXXIV, 6-(2-furyl)-3,5-dimethyl-1,3-dihydrothiopheno[2,3-d]pyrimidine-2,4-dione] |
| 458 nM | CCn1c(=O)[nH]c2sc3c(c2c1=O)CCCC3 [XI, 3-ethyl-1,3,5,6,7,8-hexahydrobenzo[b]thiopheno[2,3-d]pyrimidine-2,4-dione] |
| 137 nM | Cc1c(C2=NCCO2)sc2[nH]c(=O)n(CC(C)C)c(=O)c12 [XXVIII, 5-methyl-3-(2-methylpropyl)-6-(1,3-oxazolin-2-yl)-1,3-dihydrothiopheno[2,3-d]pyrimidine-2,4-dione] |
| 150 nM | CCn1c(=O)[nH]c2sc(-c3cc(C)cs3)c(C)c2c1=O [XXXI, 3-ethyl-5-methyl-6-(4-methyl(2-thienyl))-1,3-dihydrothiopheno[2,3-d]pyrimidine-2,4-dione] |
| 105 nM | CCn1c(=O)[nH]c2sc(-c3ccco3)c(C)c2c1=O [IV, 3-ethyl-6-(2-furyl)-5-methyl-1,3-dihydrothiopheno[2,3-d]pyrimidine-2,4-dione] |
| 274 nM | CNC(=O)c1sc2[nH]c(=O)n(C)c(=O)c2c1C [VIII, (3,5-dimethyl-2,4-dioxo(1,3-dihydrothiopheno[2,3-d]pyrimidin-6-yl))-n-methylcarboxamide] |
| 97 nM | CCn1c(=O)[nH]c2sc(-c3cccs3)c(C)c2c1=O [III, 3-ethyl-5-methyl-6-(2-thienyl)-1,3-dihydrothiopheno[2,3-d]pyrimidine-2,4-dione] |
| 347 nM | Cc1c(-c2ncco2)sc2c1c(=O)n(CC(C)C)c(=O)n2C [XL, 1,5-dimethyl-3-(2-methylpropyl)-6-(1,3-oxazol-2-yl)-1,3-dihydrothiopheno[2,3-d]pyrimidine-2,4-dione] |
| 75 nM | Cc1c(-c2ncco2)sc2[nH]c(=O)n(CC(C)C)c(=O)c12 [XXIX, 5-methyl-3-(2-methylpropyl)-6-(1,3-oxazol-2-yl)-1,3-dihydrothiopheno[2,3-d]pyrimidine-2,4-dione] |
| 569 nM | CCCn1c(=O)[nH]c2sc(C(=O)O)c(C)c2c1=O [XLI, 5-methyl-2,4-dioxo-3-propyl-1,3-dihydrothiopheno[2,3-d]pyrimidine-6-carboxylic acid] |
| 450 nM | Cc1c(C2=NC[C@@H](C)O2)sc2c1c(=O)n(CC(C)C)c(=O)n2C [LIX, 6-((5R)-5-methyl(1,3-oxazolin-2-yl))-1,5-dimethyl-3-(2-methylpropyl)-1,3-dihydrothiopheno[2,3-d]pyrimidine-2,4-dione] |
| 152 nM | CCn1c(=O)[nH]c2sc(C3=NCCO3)c(C)c2c1=O [VII, 3-ethyl-5-methyl-6-(1,3-oxazolin-2-yl)-1,3-dihydrothiopheno[2,3-d]pyrimidine-2,4-dione] |
| 769 nM | CCn1c(=O)[nH]c2sc(C(=O)N[C@H](C)CO)c(C)c2c1=O [XLII, N—((1R)-2-hydroxy-isopropyl)(3-ethyl-5-methyl-2,4-dioxo(1,3-dihydrothiopheno[2,3-d]pyrimidin-6-yl))carboxamide] |
| 365 nM | C#CCn1c(=O)[nH]c2scc(C)c2c1=O [IX, 5-methyl-3-prop-2-ynyl-1,3-dihydrothiopheno[2,3-d]pyrimidine-2,4-dione] |
| 134 nM | CCn1c(=O)[nH]c2sc(-c3ncco3)c(C)c2c1=O [V, 3-ethyl-5-methyl-6-(1,3-oxazol-2-yl)-1,3-dihydrothiopheno[2,3-d]pyrimidine-2,4-dione] |
| 896 nM | CCn1c(=O)c2c(-c3ccc(C)o3)csc2n(C)c1=O [XXII, 3-ethyl-1-methyl-5-(5-methyl(2-furyl))-1,3-dihydrothiopheno[2,3-d]pyrimidine-2,4-dione] |
| 485 nM | CCn1c(=O)c2c(C)c(-c3ccccn3)sc2n(C)c1=O [L, 3-ethyl-1,5-dimethyl-6-(2-pyridyl)-1,3-dihydrothiopheno[2,3-d]pyrimidine-2,4-dione] |
| 250 nM | CCn1c(=O)c2c(C)c(-c3ccco3)sc2n(C)c1=O [XXXIX, 3-ethyl-6-(2-furyl)-1,5-dimethyl-1,3-dihydrothiopheno[2,3-d]pyrimidine-2,4-dione] |
